Source: patent US10611771B2, “Pyrazolo [3,4-d] pyrimidine derivative” (WEST CHINA HOSPITAL, SICHUAN UNIVERSITY, priority 2016, dated 2020)
Where “and” joins values, the source holds several entries; their conditions need not be identical. Identical values can stand only once.

System: H1299 cells
Assay: MTT detection method, inhibitory effect against H1299 cells
Type: cell-based
From the text: MTT detection method was used, and MTT is a yellow compound and a dye accepting hydrogen ions, and can be used as the respiratory chain in mitochondria of viable cells. Under the action of succinate dehydrogenase and cytochrome C, the tetrazolium ring broke to form blue formanzan crystal, and the formation amount of formanzan crystal was only directly proportional to the viable counts. The formanzan crystal formed by reduction can dissolve in dimethyl sulfoxide (DMSO), and the optical density (OD) value can be determined at 490 nm using ELISA, to reflect the viable counts.
• Lung cancer cell lines: A549 and H1299. • Experimental materials: lung cancer cell lines, instruments and tools for cell culture, MTT, the compound mother liquid (10 mmol/L), and the positive control drug Src inhibitor pp1. 1. Specific Method • (3-1) Cell lines A549 and H1299 were recovered, and when the cells were in good conditions, namely cells grew to about 80% after one passage (i.e. the logarithmic growth phase), the cells were planked (96-well plate). • (3-2) Firstly, cells were collected, and the concentration of cell suspension was adjusted with counting chamber. Cells were seeded in 96-well plate at 1000˜10000 cells/well, and the detailed cell numbers in each well were dependent on the growth rate of different cells and the action time of drugs. A549 cells were seeded at 5000 cells, while H1299 cells were also seeded at 5000 cells, 200 μl for each well (100 μl cell suspension+100 μl drug dilution at different concentration gradient). The edge wells (36) were added 200 μl culture media (for prevention of edge effect). • (3-3) After planking and adding drugs, the plate was treated at 24 h, 48 h, and 72 h, and then for coloration, each well was added 200 μl culture media containing 20 μl MTT solution (5 mg/mL). The plate was continually cultured for 1˜4 hours, the incubation was stopped, and the culture supernatant fluid in each well was carefully absorbed. For suspension cells, the culture supernatant fluid in each well need be centrifuged before drawing. 150 μl DMSO was added to each well, and the plate was shaken on a shaking table for 15˜20 min, to allow the crystals to be completely dissolved. • (3-4) Colorimetry: The colorimetry was performed by ELISA, and the optical absorption value of each well was tested at a wavelength of 490 nm or 570 nm, and the result was recorded. • (3-5) Calculation Inhibition ratio=(the control−the drug)/the control×100% • IC50 (50% inhibitory concentration) can be calculated by spass software based on the inhibitory ratio at different concentration. II. Experimental Results • A549 cells were treated at 4 h, 24 h, 48 h, 72 h, and the drug dose was divided into the light concentration group (10 μm, 25 μm, 40 μm) and the high concentration group (50 μm, 80 μm, 100 μm), that were seeded at 6000 cells/well and 5000 cells/well, respectively, to carry out the experiment.
H1299 cells were seeded at 5000 cells/well, and after treatment for 4 h, 24 h, 48 h, and 72 h, the results were shown in Tables 5-9 and FIGS. 5-8: […]

SMILES: CCCCn1nc(-c2ccc(OCCOCCOCCOCCOS(=O)(=O)c3ccc(C)cc3)cc2)c2c(N)ncnc21 [Compound 2, 2-(2-(2-(2-(4-(4-amino-1-n-butyl-1H-pyrazolo[3,4-d]pyrimidin-3-)phenoxy)ethoxy)ethoxy)ethoxy)ethyl 4-methylbenzenesulfonic Acid]
- The inhibitory ratio (%) for three parallel assays (4 h, 10 μm): 9% and 12% and 2%
- The mean inhibitory ratio (%) (4 h, 10 μm): 7%
- The inhibitory ratio (%) for three parallel assays (4 h, 25 μm): 12% and 15%
- The mean inhibitory ratio (%) (4 h, 25 μm): 13%
- The inhibitory ratio (%) for three parallel assays (4 h, 40 μm): 16% and 17%
- The mean inhibitory ratio (%) (4 h, 40 μm): 16%
- The inhibitory ratio (%) for three parallel assays (4 h, 50 μm): 14% and 13%
- The mean inhibitory ratio (%) (4 h, 50 μm): 14%
- The inhibitory ratio (%) for three parallel assays (4 h, 80 μm): 11% and 10%
- The mean inhibitory ratio (%) (4 h, 80 μm): 11%
- The inhibitory ratio (%) for three parallel assays (4 h, 100 μm): 13% and 17% and 12%
- The mean inhibitory ratio (%) (4 h, 100 μm): 14%
- The inhibitory ratio (%) for three parallel assays (24 h, 10 μm): 10% and 9% and 13%
- The mean inhibitory ratio (%) (24 h, 10 μm): 11%
- The inhibitory ratio (%) for three parallel assays (24 h, 25 μm): 26% and 23% and 25%
- The mean inhibitory ratio (%) (24 h, 25 μm): 25%
- The inhibitory ratio (%) for three parallel assays (24 h, 40 μm): 36% and 35% and 37%
- The mean inhibitory ratio (%) (24 h, 40 μm): 36%
- The inhibitory ratio (%) for three parallel assays (24 h, 50 μm): 44% and 45% and 41%
- The mean inhibitory ratio (%) (24 h, 50 μm): 43%
- The inhibitory ratio (%) for three parallel assays (24 h, 80 μm): 42% and 41%
- The mean inhibitory ratio (%) (24 h, 80 μm): 42%
- The inhibitory ratio (%) for three parallel assays (24 h, 100 μm): 40%
- The mean inhibitory ratio (%) (24 h, 100 μm): 40%
- The inhibitory ratio (%) for three parallel assays (48 h, 10 μm): 16% and 20% and 21%
- The mean inhibitory ratio (%) (48 h, 10 μm): 19%
- The inhibitory ratio (%) for three parallel assays (48 h, 25 μm): 37% and 36%
- The mean inhibitory ratio (%) (48 h, 25 μm): 37%
- The inhibitory ratio (%) for three parallel assays (48 h, 40 μm): 57%
- The mean inhibitory ratio (%) (48 h, 40 μm): 57%
- The inhibitory ratio (%) for three parallel assays (48 h, 50 μm): 61%
- The mean inhibitory ratio (%) (48 h, 50 μm): 61%
- The inhibitory ratio (%) for three parallel assays (48 h, 80 μm): 64% and 63% and 62%
- The mean inhibitory ratio (%) (48 h, 80 μm): 63%
- The inhibitory ratio (%) for three parallel assays (48 h, 100 μm): 65% and 64% and 63%
- The mean inhibitory ratio (%) (48 h, 100 μm): 64%
- The inhibitory ratio (%) for three parallel assays (72 h, 10 μm): 28% and 24% and 27%
- The mean inhibitory ratio (%) (72 h, 10 μm): 26%
- The inhibitory ratio (%) for three parallel assays (72 h, 25 μm): 44% and 43% and 42%
- The mean inhibitory ratio (%) (72 h, 25 μm): 43%
- The inhibitory ratio (%) for three parallel assays (72 h, 40 μm): 65% and 64%
- The mean inhibitory ratio (%) (72 h, 40 μm): 65%
- The inhibitory ratio (%) for three parallel assays (72 h, 50 μm): 73% and 74%
- The mean inhibitory ratio (%) (72 h, 50 μm): 74%
- The inhibitory ratio (%) for three parallel assays (72 h, 80 μm): 80% and 78%
- The mean inhibitory ratio (%) (72 h, 80 μm): 80%
- The inhibitory ratio (%) for three parallel assays (72 h, 100 μm): 84% and 83% and 81%
- The mean inhibitory ratio (%) (72 h, 100 μm): 83%
